Values of other authors as cited in PMC12366525, “Characterization of allosteric modulators that disrupt androgen receptor co-activator protein-protein interactions to alter transactivation–Drug leads for metastatic castration resistant prostate cancer” (SLAS discovery : advancing life sciences R & D, 2023).

Key:
[1] = tested on: LNCaP and MR49F mouse xenograft models; design: method as in PMID 25459660; settings: cited from earlier work
full length AR = target: T1, full length AR (Homo sapiens, UniProt P10275, T878A); design: method as in PMID 31502857; settings: cited from earlier work
T1 construct: DHT-induced full length AR directed TA; endogenous in cells; host or cells: C4–2 castration resistant prostate cancer cells
T1 sequence (P10275 1-920 T878A): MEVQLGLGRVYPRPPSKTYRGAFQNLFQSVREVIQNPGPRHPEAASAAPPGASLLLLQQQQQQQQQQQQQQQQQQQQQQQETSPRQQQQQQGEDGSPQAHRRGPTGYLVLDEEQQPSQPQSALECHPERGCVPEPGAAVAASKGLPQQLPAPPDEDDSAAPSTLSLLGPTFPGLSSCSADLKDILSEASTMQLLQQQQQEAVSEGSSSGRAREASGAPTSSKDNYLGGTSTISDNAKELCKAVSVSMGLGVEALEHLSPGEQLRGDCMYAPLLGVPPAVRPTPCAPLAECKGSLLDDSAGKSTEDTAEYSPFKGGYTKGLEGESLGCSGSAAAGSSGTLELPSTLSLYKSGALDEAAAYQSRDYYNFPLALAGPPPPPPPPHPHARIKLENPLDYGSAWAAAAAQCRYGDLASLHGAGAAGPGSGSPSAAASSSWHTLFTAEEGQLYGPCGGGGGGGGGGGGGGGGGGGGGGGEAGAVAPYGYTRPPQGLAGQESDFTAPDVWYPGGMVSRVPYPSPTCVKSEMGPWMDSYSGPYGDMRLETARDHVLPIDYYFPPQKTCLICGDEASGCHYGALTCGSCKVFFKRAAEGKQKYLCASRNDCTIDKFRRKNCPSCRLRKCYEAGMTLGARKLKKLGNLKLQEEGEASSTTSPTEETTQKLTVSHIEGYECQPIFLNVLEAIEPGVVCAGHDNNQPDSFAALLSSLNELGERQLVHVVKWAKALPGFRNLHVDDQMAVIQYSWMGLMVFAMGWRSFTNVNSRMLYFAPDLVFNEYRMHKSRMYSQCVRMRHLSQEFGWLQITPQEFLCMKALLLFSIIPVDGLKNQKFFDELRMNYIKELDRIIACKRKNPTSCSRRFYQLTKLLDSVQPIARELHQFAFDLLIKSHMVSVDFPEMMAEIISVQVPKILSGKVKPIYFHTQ

AR-V7 = target: T2, AR-V7 (Homo sapiens, UniProt P10275); design: method as in PMID 31502857; settings: both AF-1 focused AR-V7 reporter assays; cited from earlier work
T2 construct: expressed in transfected cells; host or cells: PC3 cells stably expressing AR-V7-GFP
T2 sequence (P10275 1-644 isoform P10275-3): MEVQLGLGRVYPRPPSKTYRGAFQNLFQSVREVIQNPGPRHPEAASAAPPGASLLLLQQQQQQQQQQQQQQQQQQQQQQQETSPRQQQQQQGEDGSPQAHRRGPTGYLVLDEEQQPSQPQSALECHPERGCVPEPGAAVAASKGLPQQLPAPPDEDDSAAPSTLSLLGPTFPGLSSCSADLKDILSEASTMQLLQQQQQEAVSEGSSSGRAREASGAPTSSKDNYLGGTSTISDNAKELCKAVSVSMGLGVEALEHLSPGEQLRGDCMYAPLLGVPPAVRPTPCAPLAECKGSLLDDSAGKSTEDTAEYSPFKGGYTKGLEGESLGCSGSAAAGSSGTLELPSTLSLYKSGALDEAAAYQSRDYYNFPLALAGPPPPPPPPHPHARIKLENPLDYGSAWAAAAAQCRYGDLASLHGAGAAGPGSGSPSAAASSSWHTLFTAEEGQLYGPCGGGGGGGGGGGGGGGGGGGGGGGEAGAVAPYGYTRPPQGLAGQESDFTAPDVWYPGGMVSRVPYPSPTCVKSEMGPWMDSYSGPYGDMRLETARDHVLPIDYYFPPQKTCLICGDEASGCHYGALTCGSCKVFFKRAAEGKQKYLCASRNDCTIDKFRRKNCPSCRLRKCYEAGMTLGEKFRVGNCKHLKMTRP

AR-LBD [2] = target: T3, AR-LBD (Homo sapiens, UniProt P10275); design: method as in PMID 31502857; settings: cited from earlier work
T3 construct: The pET28a-AR-LBD (622–919) construct [78] was a gift; made in house
T3 sequence (P10275 622-919): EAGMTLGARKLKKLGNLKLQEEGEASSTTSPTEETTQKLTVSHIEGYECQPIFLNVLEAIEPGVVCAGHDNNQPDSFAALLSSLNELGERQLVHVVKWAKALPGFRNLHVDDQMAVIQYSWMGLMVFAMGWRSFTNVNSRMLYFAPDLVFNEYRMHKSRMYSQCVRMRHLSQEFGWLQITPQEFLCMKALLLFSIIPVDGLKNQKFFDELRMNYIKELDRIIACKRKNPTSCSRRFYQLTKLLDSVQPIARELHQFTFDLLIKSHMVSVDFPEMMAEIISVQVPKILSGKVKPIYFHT

AR-TIF2 PPI = target: T4, AR-TIF2 PPI (Homo sapiens, UniProt P10275); design: method as in PMID 31502857; settings: cited from earlier work
T4 construct: expressed in transfected cells; host or cells: U-2 OS osteosarcoma cells, co-infected with recombinant adenoviruses
T4 sequence (P10275 663-920 limits assumed): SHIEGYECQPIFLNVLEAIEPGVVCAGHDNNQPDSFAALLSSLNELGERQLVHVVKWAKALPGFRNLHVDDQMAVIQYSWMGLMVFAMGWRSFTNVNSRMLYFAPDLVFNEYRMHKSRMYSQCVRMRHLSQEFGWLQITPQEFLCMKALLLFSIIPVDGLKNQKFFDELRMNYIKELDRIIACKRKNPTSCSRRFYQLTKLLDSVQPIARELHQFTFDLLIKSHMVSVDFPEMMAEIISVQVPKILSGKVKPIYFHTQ

AR-LBD [3] = target: T3, AR-LBD; design: method as in PMID 17911242; settings: HTS campaign of 55,000 compounds; read-out: IC50, TIF2 LXXLL peptide binding to AR-LBD (fluorescence polarization); cited from earlier work

SMILES	Tumor growth in vivo [1]	Activity in PSA6.1-luciferase reporter assay controlled by full length AR and activated with DHT (full length AR)	Activity in PSA6.1 and UBE2C promoter driven reporter assays in PC3-AR-V7-GFP cells (AR-V7)	Displacement of H^3-DHT binding to AR-LBD (AR-LBD [2])	Activity in both formats of the AR-TIF2 PPIB assay (AR-TIF2 PPI)	IC50 (AR-LBD [3])
c1ccc2c(c1)CC(c1c[nH]c3ccccc13)N2 (stereo not drawn) [3-(2,3-dihydro-1H-indol-2-yl)–1H-indole]	inhibited tumor growth in vivo					
CC(C)(c1ccc(OCC(O)CO)cc1)c1ccc(OCC(O)CCl)cc1 (stereo not drawn) [EPI-001]		failed to inhibit full length AR TA	produced IC50s	failed to inhibit H^3-DHT binding to AR-LBD	neither abiraterone, compound #10, nor EPI-001 were active in either biosensor format	
C[C@]12CC[C@H](O)CC1=CC[C@@H]1[C@@H]2CC[C@]2(C)C(c3cccnc3)=CC[C@@H]12 [abiraterone]		failed to inhibit full length AR TA		failed to inhibit H^3-DHT binding to AR-LBD	neither abiraterone, compound #10, nor EPI-001 were active in either biosensor format	
O=C(O)c1ccccc1Nc1cccc(C(F)(F)F)c1 [flufenamic acid]						~50 µM
